The source of these data is US20170165200A1, “COMPOSITION OF LIPID-BASED NANOPARTICLES FOR SMALL MOLECULES AND MACROMOLECULES” (University of North Texas Health Science Center, priority 2015, published 2017).

For data set [1] the following is noted: mice; cited from earlier work.
A short description of data set [2]: In vitro release of NGF by dialysis in 5% BSA-PBS. The class given is physicochemical. Conditions: 5% BSA-PBS (pH 7), 37° C., first hour (n=4). The method, then:
In vitro release study. The release of NGF from NGF NPs (n=4) was studied using a dialysis method. The release medium was PBS (pH 7) containing 5% BSA to mimic the physiological condition in blood. Briefly, 200 μl NGF NPs and […] release medium were loaded into the dialysis tube (invco 300 kDa). Then the dialysis tube was placed into a 30 ml release medium and shaken at a 37° C. at 135 rpm. At the time intervals (1, 2, 4, 6, 8, 24, 48 and 72 hours), 100 μl of the release medium were withdrawn and replaced with an equal volume of fresh medium. The amounts of released NGF in the medium were analyzed by a NGF Sandwich ELISA kit. As a control, free NGF (n=4) was studied in parallel.

For a further data set, the system named is PC12 cells. Kind of data set: Neurite outgrowth study. The class given is cell-based. The method, then: Neurite Outgrowth Study. It is important to maintain protein's activity after the formulation of the NPs. Thus, the inventors chose to measure the bioactivity of NGF HDL-mimicking NPs in PC12 cells for neurite outgrowth. They pre-coated a 6-well plate with rat tail collagen type I. They seeded PC12 cells at a density of 10000 cells/well to the pre-coated 6-well plate overnight to allow cells to attach on the plates. They diluted free NGF (10 μg/ml) and NGF HDL-mimicking NPs (10 μg/ml) with the culture medium to prepare various concentrations at 0.5, 1, 5, 10, 50, and 100 ng/ml using half-half dilution. Then, they added 100 μl of sample into each well of the plate and culture for 4 days. At day 4 they changed the medium to fresh medium containing the corresponding treatment and then continue the treatment for another 3 days. At day 7, they visualized cells by an inverted light microscope and take the imaging from each well at random spots under 10× magnification.

The conditions of data set [3]: rat, in vivo, iv; cited from earlier work.

As to `CC(=O)O[C@@]12CO[C@@H]1C[C@H](O)[C@@]1(C)C(=O)[C@H](O)C3=C(C)[C@@H](OC(=O)[C@H](O)[C@@H](NC(=O)OC(C)(C)C)c4ccccc4)C[C@@](O)([C@@H](OC(=O)c4ccccc4)[C@H]21)C3(C)C` [DTX, Docetaxel], the “maximal tolerate dose of single dose” value in data set [1] is 15 to 33 mg/kg.
As to “free NGF: Recombinant human NGF (nerve growth factor)”, the NGF released in data set [2] was found to be 83%. For the same molecule, the neurite outgrowth entry in the data set on PC12 cells (day 7, concentration of NGF lower than 10 ng/ml) is recorded as “neurite outgrowth cannot be observed clearly”; in the data set with PC12 cells (day 7, treatment concentration higher than 10 ng/ml) it was “neurite outgrowth was clearly observed”. Also, in data set [3], the half-life entry is on record as “about 5.4 min”.
